The record followed here is patent US10047051B2, “Substituted pyridines and method of use” (AbbVie S.á{acute over (.)}r.l., priority 2015, dated 2018).

In experiment [1] the target is T1, CFTR ΔF508 mutant (Homo sapiens, UniProt P13569, DEL508-508).
T1 construct: expressed in transfected cells; host or cells: CFBE41o- cells, adenoviral transduction
The experiment can be described thus: YFP-halide influx assay for the CFTR-ΔF508 mutation (CFBE41o- cells). The experiment is classed as cell-based. Conditions: forskolin 10.67 μM; for EC50: from (1−F/F0) vs concentration plot. The procedure, abridged:
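EC50 derived from plotting 1−F/F0 (fluorescence 36 s after iodide injection over pre-injection value) against compound concentration. Cells: CFBE41o- transduced with ΔF508-CFTR and YFP quench reporter, corrected 24 h at 27° C or by a CFTR modulator at 37° C.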

The target of experiment [2] is T2, CFTR G551D mutant (Homo sapiens, UniProt P13569, G551D).
T2 construct: expressed in transfected cells; host or cells: HEK293 cells, reverse transfection with plasmids
Put plainly: YFP-halide influx assay for the CFTR-G551D mutation (HEK293 cells). Conditions: forskolin 10.67 μM. The experiment is classed as cell-based. In a few lines:
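Channel opening read as I⁻-driven quenching of a YFP H148Q/I152L/F47L reporter over 7 s post-injection, expressed as 1−F/F0 and fitted against concentration for EC50. Cells were HEK293 co-transfected at seeding with G551D CFTR plus reporter, then grown 24 h at 37 °C, 5% CO2.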

Bounds are passed on as bounds.

T1 sequence (P13569 with tags, fused parts or gaps DEL508-508): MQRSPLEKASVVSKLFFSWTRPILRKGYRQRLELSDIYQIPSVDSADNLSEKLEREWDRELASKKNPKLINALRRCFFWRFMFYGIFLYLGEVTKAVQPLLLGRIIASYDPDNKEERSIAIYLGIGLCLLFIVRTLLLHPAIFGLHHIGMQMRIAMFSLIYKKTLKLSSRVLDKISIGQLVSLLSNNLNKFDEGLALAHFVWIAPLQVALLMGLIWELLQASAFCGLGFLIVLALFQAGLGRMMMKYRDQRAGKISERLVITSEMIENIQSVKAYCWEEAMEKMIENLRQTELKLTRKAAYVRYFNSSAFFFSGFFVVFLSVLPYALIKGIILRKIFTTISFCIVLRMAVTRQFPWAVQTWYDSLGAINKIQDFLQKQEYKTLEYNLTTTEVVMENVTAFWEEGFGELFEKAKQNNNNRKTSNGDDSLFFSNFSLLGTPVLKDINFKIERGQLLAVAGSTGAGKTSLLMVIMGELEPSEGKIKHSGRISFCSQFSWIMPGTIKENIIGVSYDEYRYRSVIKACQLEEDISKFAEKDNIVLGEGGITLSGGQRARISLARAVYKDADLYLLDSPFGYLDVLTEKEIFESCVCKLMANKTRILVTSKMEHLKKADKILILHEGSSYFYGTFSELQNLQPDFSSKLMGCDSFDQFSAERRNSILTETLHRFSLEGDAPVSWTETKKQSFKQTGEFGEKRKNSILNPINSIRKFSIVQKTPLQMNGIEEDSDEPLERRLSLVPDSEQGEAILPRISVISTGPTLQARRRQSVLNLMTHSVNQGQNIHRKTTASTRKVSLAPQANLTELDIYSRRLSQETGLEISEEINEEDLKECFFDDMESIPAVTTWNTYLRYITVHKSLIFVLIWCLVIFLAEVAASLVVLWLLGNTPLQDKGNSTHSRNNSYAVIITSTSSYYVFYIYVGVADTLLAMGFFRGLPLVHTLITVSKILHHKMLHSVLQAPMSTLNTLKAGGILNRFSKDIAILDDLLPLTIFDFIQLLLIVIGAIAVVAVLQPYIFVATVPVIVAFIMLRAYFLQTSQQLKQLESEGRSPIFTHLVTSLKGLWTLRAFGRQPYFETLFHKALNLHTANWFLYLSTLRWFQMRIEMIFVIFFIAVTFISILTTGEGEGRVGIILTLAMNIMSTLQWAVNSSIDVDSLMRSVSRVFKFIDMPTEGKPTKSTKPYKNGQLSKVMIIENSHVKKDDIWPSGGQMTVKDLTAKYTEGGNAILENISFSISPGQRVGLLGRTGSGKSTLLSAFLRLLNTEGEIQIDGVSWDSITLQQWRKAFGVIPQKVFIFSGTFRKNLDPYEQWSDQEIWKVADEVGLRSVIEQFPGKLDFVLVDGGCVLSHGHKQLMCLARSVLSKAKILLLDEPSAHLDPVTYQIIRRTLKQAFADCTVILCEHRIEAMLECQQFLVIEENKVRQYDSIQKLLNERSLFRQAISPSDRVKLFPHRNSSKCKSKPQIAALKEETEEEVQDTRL
T2 sequence (P13569 whole entry G551D): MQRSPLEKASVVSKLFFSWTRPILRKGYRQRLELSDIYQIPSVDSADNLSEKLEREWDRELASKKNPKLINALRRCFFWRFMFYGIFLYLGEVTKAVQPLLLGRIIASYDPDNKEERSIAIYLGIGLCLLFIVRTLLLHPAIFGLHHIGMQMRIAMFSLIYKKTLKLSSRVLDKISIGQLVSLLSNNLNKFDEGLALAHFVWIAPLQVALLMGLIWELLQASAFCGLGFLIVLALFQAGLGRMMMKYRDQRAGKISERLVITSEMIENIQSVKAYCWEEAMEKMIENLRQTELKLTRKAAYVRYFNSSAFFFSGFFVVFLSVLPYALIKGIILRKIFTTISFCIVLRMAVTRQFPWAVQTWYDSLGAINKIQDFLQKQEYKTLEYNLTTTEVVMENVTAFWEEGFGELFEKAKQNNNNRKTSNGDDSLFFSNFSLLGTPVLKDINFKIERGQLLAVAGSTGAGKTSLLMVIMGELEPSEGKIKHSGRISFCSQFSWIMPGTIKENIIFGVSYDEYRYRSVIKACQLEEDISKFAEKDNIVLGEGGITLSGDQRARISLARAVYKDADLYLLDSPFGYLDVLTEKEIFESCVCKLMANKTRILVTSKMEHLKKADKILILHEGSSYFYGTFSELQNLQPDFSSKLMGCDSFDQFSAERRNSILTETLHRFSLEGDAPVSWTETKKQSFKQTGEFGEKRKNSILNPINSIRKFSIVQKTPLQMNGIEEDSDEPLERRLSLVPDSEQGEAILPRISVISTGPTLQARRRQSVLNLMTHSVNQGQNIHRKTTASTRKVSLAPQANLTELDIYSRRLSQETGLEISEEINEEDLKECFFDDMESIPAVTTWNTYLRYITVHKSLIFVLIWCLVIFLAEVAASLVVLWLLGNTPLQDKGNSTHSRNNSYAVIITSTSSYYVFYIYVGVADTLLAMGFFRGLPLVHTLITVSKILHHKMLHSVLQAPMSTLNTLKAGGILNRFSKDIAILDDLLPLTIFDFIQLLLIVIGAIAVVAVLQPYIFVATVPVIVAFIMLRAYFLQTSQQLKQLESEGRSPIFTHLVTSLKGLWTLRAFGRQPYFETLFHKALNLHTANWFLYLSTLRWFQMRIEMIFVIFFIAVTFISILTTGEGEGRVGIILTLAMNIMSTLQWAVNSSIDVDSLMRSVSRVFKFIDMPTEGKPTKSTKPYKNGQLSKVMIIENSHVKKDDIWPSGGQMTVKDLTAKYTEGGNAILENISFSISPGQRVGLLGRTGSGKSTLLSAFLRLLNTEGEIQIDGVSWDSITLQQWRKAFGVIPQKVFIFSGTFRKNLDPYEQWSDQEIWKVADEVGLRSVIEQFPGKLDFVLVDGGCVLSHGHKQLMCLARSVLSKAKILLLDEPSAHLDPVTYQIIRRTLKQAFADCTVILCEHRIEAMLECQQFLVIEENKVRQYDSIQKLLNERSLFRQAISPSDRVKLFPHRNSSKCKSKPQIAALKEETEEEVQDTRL

Take `Nc1cc(S(=O)(=O)N2CCC(F)(F)CC2)cnc1C(=O)NCC(O)C(F)(F)F` (centres unmarked) [Compound 84, 3-amino-5-[(4,4-difluoropiperidin-1-yl)sulfonyl]-N-(3,3,3-trifluoro-2-hydroxypropyl)pyridine-2-carboxamide]: in experiment [1], the “% Activation” value worked out at 101.0% and the EC50 (in general, the concentration needed to bring the measured effect to its halfway point) stood at 0.0105 µM. In experiment [2], the “% Activation” value is given as 64.4% and the EC50 was 1.94 µM.

As to `CN(C1CC1)S(=O)(=O)c1cnc(C(=O)NCC(O)C(F)(F)F)c(N)c1` (centres unmarked) [Compound 94, 3-amino-5-[cyclopropyl(methyl)sulfamoyl]-N-(3,3,3-trifluoro-2-hydroxypropyl)pyridine-2-carboxamide], the “% Activation” value in experiment [1] came out at 102.0%; in experiment [2] it was 43.4%. The figures for the EC50 in experiment [1] and in experiment [2] were 0.0222 µM and 1.14 µM, respectively.

With `CC(C)C(C)NC(=O)c1ncc(S(=O)(=O)c2ccc(C(F)(F)F)cc2)cc1N` (centres unmarked) [Compound 188, 3-amino-N-(3-methylbutan-2-yl)-5-{[4-(trifluoromethyl)phenyl]sulfonyl}pyridine-2-carboxamide], in experiment [1], the “% Activation” value was 88.8% and it took 0.378 µM to reach a half-maximal effect (EC50). Also, in experiment [2], the “% Activation” value worked out at 13.4% and the EC50 is > 10 µM.

Take `CCS(=O)(=O)c1cc(N)c(C(=O)NC[C@H](C)O)nc1-c1ccc(F)cc1` [Compound 263, 3-amino-5-(ethylsulfonyl)-6-(4-fluorophenyl)-N-[(2S)-2-hydroxypropyl]pyridine-2-carboxamide]: in experiment [1], the “% Activation” value was found to be 97.2% and the EC50 was found to be 0.142 µM. Besides, in experiment [2], the “% Activation” value was found to be 5.99% and the EC50 was 2 µM.

As to `CC(C)NC(=O)CNC(=O)c1ncc(S(=O)(=O)c2ccc(C(F)(F)F)cc2F)cc1N` [Compound 113, 3-amino-5-{[2-fluoro-4-(trifluoromethyl)phenyl]sulfonyl}-N-[2-oxo-2-(propan-2-ylamino)ethyl]pyridine-2-carboxamide], in experiment [1], the “% Activation” value turned out to be 101.9% and a half-maximal effect (EC50) was put at 0.0104 µM. Besides, in experiment [2], the “% Activation” value worked out at 41.1% and the midpoint of the response, the EC50, lay at 0.297 µM.

For the compound `Nc1cc(S(=O)(=O)c2ccc(OC(F)(F)F)cc2)cnc1C(=O)NCC1(O)CCOCC1` [Compound 29, 3-amino-N-[(4-hydroxytetrahydro-2H-pyran-4-yl)methyl]-5-{[4-(trifluoromethoxy)phenyl]sulfonyl}pyridine-2-carboxamide], the “% Activation” value turned out to be 94.1% in experiment [1] and 58.7% in experiment [2]. For the same compound, the EC50 in experiment [1] was 0.0546 µM; in experiment [2] it was 1.5 µM.

With `CC(C)(O)CNC(=O)c1ncc(S(=O)(=O)c2cccc(F)c2)cc1N` [Compound 39, 3-amino-5-[(3-fluorophenyl)sulfonyl]-N-(2-hydroxy-2-methylpropyl)pyridine-2-carboxamide], in experiment [1], the “% Activation” value turned out to be 42.5% and the midpoint of the response, the EC50, lay at 0.155 µM. Besides, in experiment [2], the “% Activation” value is reported as 5.0% and the half-maximal effective concentration (EC50) was > 10 µM.

Consider `COc1ccc(CN(C)S(=O)(=O)c2cnc(C(=O)NCC(O)C(F)(F)F)c(N)c2)cc1` (centres unmarked) [Compound 138, 3-amino-5-[(4-methoxybenzyl)(methyl)sulfamoyl]-N-(3,3,3-trifluoro-2-hydroxypropyl)pyridine-2-carboxamide], for which, in experiment [1], the “% Activation” value worked out at 94.5% and a half-maximal effect (EC50) was put at 0.0179 µM. Also, in experiment [2], the “% Activation” value is reported as 49.6% and the midpoint of the response, the EC50, lay at 0.684 µM.

As for `CC1CN(C(=O)c2ncc(S(=O)(=O)c3ccc(OC(F)(F)F)cc3)cc2N)C1` [Compound 126, (3-amino-5-{[4-(trifluoromethoxy)phenyl]sulfonyl}pyridin-2-yl)(3-methylazetidin-1-yl)methanone], in experiment [1], the “% Activation” value was 92.9% and the EC50 worked out at 0.0649 µM. In addition, in experiment [2], the “% Activation” value turned out to be 62.2% and the response was half-maximal at 1.47 µM (EC50).

Take `COc1nc(C(=O)NC[C@H](C)O)c(N)cc1S(=O)(=O)c1ccc(OC(F)(F)F)cc1` [Compound 280, 3-amino-N-[(2S)-2-hydroxypropyl]-6-methoxy-5-{[4-(trifluoromethoxy)phenyl]sulfonyl}pyridine-2-carboxamide]: the “% Activation” value in experiment [1] amounted to 111.0%; in experiment [2], 57.6%. Besides, the EC50 in experiment [1] stood at 0.0029 µM; in experiment [2] it was 1.16 µM.

Turning to `Nc1cc(S(=O)(=O)c2ccc(OC(F)(F)F)cc2)cnc1C(=O)N1CC[C@@H](F)C1` [Compound 204, (3-amino-5-{[4-(trifluoromethoxy)phenyl]sulfonyl}pyridin-2-yl)[(3R)-3-fluoropyrrolidin-1-yl]methanone], in experiment [1], the “% Activation” value amounted to 92.5% and it took 0.177 µM to reach a half-maximal effect (EC50). In experiment [2], the “% Activation” value was found to be 73.9% and the EC50 is > 3.33 µM.

In the case of `Nc1cc(S(=O)(=O)c2ccc(OC(F)(F)F)cc2)cnc1C(=O)NNC(=O)CO` [Compound 287, 3-amino-N′-(hydroxyacetyl)-5-{[4-(trifluoromethoxy)phenyl]sulfonyl}pyridine-2-carbohydrazide], the “% Activation” value in experiment [1] turned out to be 83.4%; in experiment [2] it was 24.3%. The compound further yielded an EC50 in experiment [1] of 0.256 µM.

In the case of `Nc1cc(S(=O)(=O)c2ccc(C(F)(F)F)cc2)cnc1C(=O)NCCC(F)(F)F` [Compound 212, 3-amino-5-{[4-(trifluoromethyl)phenyl]sulfonyl}-N-(3,3,3-trifluoropropyl)pyridine-2-carboxamide], in experiment [1], the “% Activation” value amounted to 96.7% and the EC50 worked out at 0.0471 µM. In experiment [2], the “% Activation” value is recorded as 33.0%.

In the case of `CC(C)S(=O)(=O)c1cc(N)c(C(=O)NC[C@H](C)O)nc1-c1ccc(F)cc1` [Compound 264, 3-amino-6-(4-fluorophenyl)-N-[(2S)-2-hydroxypropyl]-5-(propan-2-ylsulfonyl)pyridine-2-carboxamide], in experiment [1], the “% Activation” value turned out to be 76.0% and the EC50 turned out to be 0.213 µM. Also, in experiment [2], the “% Activation” value is listed as 6.51% and the concentration for a half-maximal effect (EC50) is 2 µM.

Take `Nc1cc(S(=O)(=O)c2ccc(C(F)(F)F)cc2)cnc1C(=O)N1CC(C(F)(F)F)C1` [Compound 157, (3-amino-5-{[4-(trifluoromethyl)phenyl]sulfonyl}pyridin-2-yl)[3-(trifluoromethyl)azetidin-1-yl]methanone]: in experiment [1], the “% Activation” value worked out at 101.2% and the EC50 stood at 0.0337 µM. In experiment [2], the “% Activation” value came out at 28.8% and the EC50 was > 10 µM.

As to `COCC(O)CNC(=O)c1ncc(S(=O)(=O)c2ccc(C(F)(F)F)cc2)cc1N` (centres unmarked) [Compound 239, 3-amino-N-(2-hydroxy-3-methoxypropyl)-5-{[4-(trifluoromethyl)phenyl]sulfonyl}pyridine-2-carboxamide], the figures for the “% Activation” value in experiment [1] and in experiment [2] were 95.8% and 76.5%, respectively. The EC50 amounted to 0.0295 µM in experiment [1] and 1.05 µM in experiment [2].

On to `COC[C@H](O)CNC(=O)c1ncc(S(=O)(=O)c2ccc(OC(F)(F)F)cc2)cc1N` [Compound 69, 3-amino-N-[(2R)-2-hydroxy-3-methoxypropyl]-5-{[4-(trifluoromethoxy)phenyl]sulfonyl}pyridine-2-carboxamide], for which the “% Activation” value in experiment [1] is recorded as 102.0%; in experiment [2], 85.0%. Moreover, the EC50 stood at 0.0057 µM in experiment [1] and 1.08 µM in experiment [2].

Consider `CC(C)C(CO)NC(=O)c1ncc(S(=O)(=O)c2ccc(OC(F)(F)F)cc2)cc1N` (centres unmarked) [Compound 13, 3-amino-N-(1-hydroxy-3-methylbutan-2-yl)-5-{[4-(trifluoromethoxy)phenyl]sulfonyl}pyridine-2-carboxamide], for which, in experiment [1], the “% Activation” value is given as 101.0% and the midpoint of the response, the EC50, lay at 0.0399 µM. Moreover, in experiment [2], the “% Activation” value worked out at 21.3% and the EC50 is > 10 µM.

Turning to `Nc1cc(S(=O)(=O)c2ccc(OC(F)(F)F)cc2F)cnc1C(=O)N1CC(F)(F)C1` [Compound 172, (3-amino-5-{[2-fluoro-4-(trifluoromethoxy)phenyl]sulfonyl}pyridin-2-yl)(3,3-difluoroazetidin-1-yl)methanone], in experiment [1], the “% Activation” value is reported as 95.9% and it took 0.0134 µM to reach a half-maximal effect (EC50). Besides, in experiment [2], the “% Activation” value is reported as 62.4% and the EC50 was found to be 0.864 µM.

`COCC(O)CNC(=O)c1ncc(S(=O)(=O)N2CCC[C@@H]2C)cc1N` (stereo partly drawn) [Compound 276, 3-amino-N-(2-hydroxy-3-methoxypropyl)-5-{[(2S)-2-methylpyrrolidin-1-yl]sulfonyl}pyridine-2-carboxamide]: in experiment [1], the “% Activation” value was 108.0% and the response was half-maximal at 0.109 µM (EC50). Also, in experiment [2], the “% Activation” value worked out at 13.7% and the EC50 is > 10 µM.

Consider `Nc1cc(S(=O)(=O)c2ccc(C(F)(F)F)cc2F)cnc1C(=O)N1CC(OC(F)F)C1` [Compound 161, (3-amino-5-{[2-fluoro-4-(trifluoromethyl)phenyl]sulfonyl}pyridin-2-yl)[3-(difluoromethoxy)azetidin-1-yl]methanone], for which, in experiment [1], the “% Activation” value is listed as 97.3% and the EC50 worked out at 0.0215 µM. Also, in experiment [2], the “% Activation” value was determined as 45.8% and the EC50 was 0.681 µM.

As to `Nc1cc(S(=O)(=O)c2ccc(C(F)(F)F)cc2)cnc1C(=O)NCCOCC1CCCO1` (centres unmarked) [Compound 190, 3-amino-N-[2-(tetrahydrofuran-2-ylmethoxy)ethyl]-5-{[4-(trifluoromethyl)phenyl]sulfonyl}pyridine-2-carboxamide], in experiment [1], the “% Activation” value stood at 96.6% and the EC50 is 0.135 µM. Further, in experiment [2], the “% Activation” value is 67.4% and the EC50 worked out at 1.88 µM.
